Assay [1] is described as follows: Growth inhibition of human NCI-H1792 cells at 1:10 molar ratio of compound in presence of N-{3-[3-cyclopropyl-5-(2-fluoro-4-iodo-phenylamino)-6,8-dimethyl- 2,4,7-trioxo-3,4,6,7-tetrahydro-2H-pyrido[4,3-d]pyrimidin-1-yl]phenyl}acetamide incubated for 72 hrs by Cell-titer-Glo reagent based assay. The assay is classed as functional. The following applies: NCI-H1792, 72 h.

Assay [2] can be described thus: Growth inhibition of human NCI-H1355 cells at 1:10 molar ratio of compound in presence of N-{3-[3-cyclopropyl-5-(2-fluoro-4-iodo-phenylamino)-6,8-dimethyl- 2,4,7-trioxo-3,4,6,7-tetrahydro-2H-pyrido[4,3-d]pyrimidin-1-yl]phenyl}acetamide incubated for 72 hrs by Cell-titer-Glo reagent based assay. The assay is classed as functional. The following applies: NCI-H1355, 72 h.

The nature of assay [3]: Growth inhibition of human Calu6 cells assessed combination index at 1:10 molar ratio of compound in presence of N-{3-[3-cyclopropyl-5-(2-fluoro-4-iodo-phenylamino)-6,8-dimethyl- 2,4,7-trioxo-3,4,6,7-tetrahydro-2H-pyrido[4,3-d]pyrimidin-1-yl]phenyl}acetamide incubated for 72 hrs by Cell-titer-Glo reagent based assay. The assay is classed as functional, Calu-6.
The nature of assay [4]: Growth inhibition of human HT-29 cells assessed combination index at 1:10 molar ratio of compound in presence of N-{3-[3-cyclopropyl-5-(2-fluoro-4-iodo-phenylamino)-6,8-dimethyl- 2,4,7-trioxo-3,4,6,7-tetrahydro-2H-pyrido[4,3-d]pyrimidin-1-yl]phenyl}acetamide incubated for 72 hrs by Cell-titer-Glo reagent based assay. The assay is classed as functional.
A short description of assay [5]: Growth inhibition of human COR-L23 cells at 1:10 molar ratio of compound in presence of N-{3-[3-cyclopropyl-5-(2-fluoro-4-iodo-phenylamino)-6,8-dimethyl- 2,4,7-trioxo-3,4,6,7-tetrahydro-2H-pyrido[4,3-d]pyrimidin-1-yl]phenyl}acetamide incubated for 72 hrs by Cell-titer-Glo reagent based assay. The assay is classed as functional. The following applies: COR-L23, 72 h.

Assay [6] can be described thus: Growth inhibition of human KM12 cells at 1:10 molar ratio of compound in presence of N-{3-[3-cyclopropyl-5-(2-fluoro-4-iodo-phenylamino)-6,8-dimethyl- 2,4,7-trioxo-3,4,6,7-tetrahydro-2H-pyrido[4,3-d]pyrimidin-1-yl]phenyl}acetamide incubated for 72 hrs by Cell-titer-Glo reagent based assay. The assay is classed as functional. Particulars: KM12, 72 h.
The nature of assay [7]: Growth inhibition of human SW1463 cells assessed combination index at 1:10 molar ratio of compound in presence of N-{3-[3-cyclopropyl-5-(2-fluoro-4-iodo-phenylamino)-6,8-dimethyl- 2,4,7-trioxo-3,4,6,7-tetrahydro-2H-pyrido[4,3-d]pyrimidin-1-yl]phenyl}acetamide incubated for 72 hrs by Cell-titer-Glo reagent based assay. The assay is classed as functional.
Assay [8] is described as follows: Growth inhibition of human LS1034 cells assessed combination index at 1:10 molar ratio of compound in presence of N-{3-[3-cyclopropyl-5-(2-fluoro-4-iodo-phenylamino)-6,8-dimethyl- 2,4,7-trioxo-3,4,6,7-tetrahydro-2H-pyrido[4,3-d]pyrimidin-1-yl]phenyl}acetamide incubated for 72 hrs by Cell-titer-Glo reagent based assay. It is filed as functional, LS-1034.
Assay [9] in a line: Growth inhibition of human DLD1 cells at 1:10 molar ratio of compound in presence of N-{(1S)-2-amino-1-[(3-fluorophenyl)methyl]ethyl}-5-chloro-4-(4-chloro-1-methyl-1H-pyrazol-5-yl)-2-thiophenecar- boxamide incubated for 72 hrs by Cell-titer-Glo reagent based assay. It is filed as functional. The following applies: DLD-1, 72 h.
The nature of assay [10]: Growth inhibition of human NCI-H727 cells at 1:10 molar ratio of compound in presence of N-{(1S)-2-amino-1-[(3-fluorophenyl)methyl]ethyl}-5-chloro-4-(4-chloro-1-methyl-1H-pyrazol-5-yl)-2-thiophenecar- boxamide incubated for 72 hrs by Cell-titer-Glo reagent based assay. Particulars: NCI-H727, 72 h. The assay is classed as functional.
Assay [11] is described as follows: Growth inhibition of human NCI-H1792 cells assessed combination index at 1:10 molar ratio of compound in presence of N-{(1S)-2-amino-1-[(3-fluorophenyl)methyl]ethyl}-5-chloro-4-(4-chloro-1-methyl-1H-pyrazol-5-yl)-2-thiophenecar- boxamide incubated for 72 hrs by Cell-titer-Glo reagent based assay. It is filed as functional.
Assay [12] is described as follows: Growth inhibition of human SW1573 cells at 1:10 molar ratio of compound in presence of N-{(1S)-2-amino-1-[(3-fluorophenyl)methyl]ethyl}-5-chloro-4-(4-chloro-1-methyl-1H-pyrazol-5-yl)-2-thiophenecar- boxamide incubated for 72 hrs by Cell-titer-Glo reagent based assay. It is filed as functional. The following applies: SW1573, 72 h.
Assay [13] in a line: Growth inhibition of human HOP62 cells at 1:10 molar ratio of compound in presence of N-{(1S)-2-amino-1-[(3-fluorophenyl)methyl]ethyl}-5-chloro-4-(4-chloro-1-methyl-1H-pyrazol-5-yl)-2-thiophenecar- boxamide incubated for 72 hrs by Cell-titer-Glo reagent based assay. It is filed as functional. Particulars: HOP-62, 72 h.
Assay [14] is described as follows: Growth inhibition of human HCC827 cells at 1:10 molar ratio of compound in presence of N-{(1S)-2-amino-1-[(3-fluorophenyl)methyl]ethyl}-5-chloro-4-(4-chloro-1-methyl-1H-pyrazol-5-yl)-2-thiophenecar- boxamide incubated for 72 hrs by Cell-titer-Glo reagent based assay. The assay is classed as functional. Particulars: HCC827, 72 h.
Assay [15] can be described thus: Growth inhibition of human SW1463 cells at 1:10 molar ratio of compound in presence of N-{(1S)-2-amino-1-[(3-fluorophenyl)methyl]ethyl}-5-chloro-4-(4-chloro-1-methyl-1H-pyrazol-5-yl)-2-thiophenecar- boxamide incubated for 72 hrs by Cell-titer-Glo reagent based assay. It is filed as functional. The following applies: SW1463, 72 h.
Assay [16] can be described thus: Growth inhibition of human HT-29 cells at 1:10 molar ratio of compound in presence of N-{(1S)-2-amino-1-[(3-fluorophenyl)methyl]ethyl}-5-chloro-4-(4-chloro-1-methyl-1H-pyrazol-5-yl)-2-thiophenecar- boxamide incubated for 72 hrs by Cell-titer-Glo reagent based assay. The assay is classed as functional. Particulars: HT-29, 72 h.
Assay [17] can be described thus: Growth inhibition of human Calu6 cells assessed combination index at 1:10 molar ratio of compound in presence of N-{(1S)-2-amino-1-[(3-fluorophenyl)methyl]ethyl}-5-chloro-4-(4-chloro-1-methyl-1H-pyrazol-5-yl)-2-thiophenecar- boxamide incubated for 72 hrs by Cell-titer-Glo reagent based assay. It is filed as functional, Calu-6.
A short description of assay [18]: Growth inhibition of human NCI-H1355 cells assessed combination index at 1:10 molar ratio of compound in presence of N-{(1S)-2-amino-1-[(3-fluorophenyl)methyl]ethyl}-5-chloro-4-(4-chloro-1-methyl-1H-pyrazol-5-yl)-2-thiophenecar- boxamide incubated for 72 hrs by Cell-titer-Glo reagent based assay. The assay is classed as functional.
A short description of assay [19]: Growth inhibition of human SW900 cells at 1:10 molar ratio of compound in presence of N-{(1S)-2-amino-1-[(3-fluorophenyl)methyl]ethyl}-5-chloro-4-(4-chloro-1-methyl-1H-pyrazol-5-yl)-2-thiophenecar- boxamide incubated for 72 hrs by Cell-titer-Glo reagent based assay. It is filed as functional. Particulars: SW900, 72 h.
Assay [20] in a line: Growth inhibition of human COR-L23 cells assessed combination index at 1:10 molar ratio of compound in presence of N-{(1S)-2-amino-1-[(3-fluorophenyl)methyl]ethyl}-5-chloro-4-(4-chloro-1-methyl-1H-pyrazol-5-yl)-2-thiophenecar- boxamide incubated for 72 hrs by Cell-titer-Glo reagent based assay. The assay is classed as functional.

SMILES strings stand for the structures.

Usually IC50 stands for the concentration that inhibits the measured activity by half.

For `Cn1ncc(Cl)c1-c1cc(C(=O)N[C@H](CN)Cc2cccc(F)c2)sc1Cl` [AFURESERTIB], the IC50 in assay [1] came to 374 nM; in assay [2] it was 268 nM; in assay [5], 368 nM; in [6], 104 nM. The CI in assay [3] came to 0.79; in [4], 0.95; in assay [7], 0.94; in assay [8], 0.84.

As to `CC(=O)Nc1cccc(-n2c(=O)n(C3CC3)c(=O)c3c(Nc4ccc(I)cc4F)n(C)c(=O)c(C)c32)c1` [TRAMETINIB], the IC50 in assay [9] was found to be 93 nM; in assay [10], 2 nM; in assay [12], 38 nM; in [13], 50 nM; in [14], 40 nM; in assay [15] it was 4 nM. Also, the half-inhibitory concentration (IC50) in assay [16] was determined as 1 nM; in assay [19], 72 nM. Also, the CI in assay [11] is 0.73; in [17], 0.79; in assay [18] it was 0.57; in [20] it was 0.17.

The values are drawn from ChEMBL document CHEMBL3880386, “Combination comprising the MEK inhibitor N-{3-[3-cyclopropyl-5-(2-fluoro-4-iodo- phenylamino)-6,8-dimethyl-2,4,7-trioxo-3,4,6,7-tetrahydro-2H-pyrido[4,3-d]pyrimidin-1-yl]phenyl}acetamide and the Akt inhibitor N-{(1S)-2-amino-1-[(3-fluorophenyl)methyl]ethyl}-5-chloro-4-(4-chloro-1- …” (2014).
